Results published in patent US5273991A, “Imidazole-containing compositions and methods of use thereof analogs of distamycin” (Research Corporation Technologies, Inc., priority 1992, dated 1993).
pIC50: −log10 of the molar value.

How the values were obtained:
Assay in all cases: NCI cytotoxicity screen (SRB)
Assay type in all cases: cell-based, human
[1] = system: XF498; details: XF498; subsequent test date
Experimental: (§1) Compounds 6, 7, 9 and 10 were tested for cytotoxic properties by the National Cancer Institute, Bethesda, Md. The anticancer drug screen utilized a panel of 60 human tumor cell lines organized into subpanels representing leukemia, melanoma, and cancers of the lung, colon, kidney, ovary and central nervous system and is described by Monks et al. (1991) Journal of the National Cancer Institute 83, 757, which is incorporated herein by reference.
(§2) Cell lines were inoculated onto microtiter plates and preincubated for 24-28 hours. 100 μL aliquots of each compound were added to the appropriate microtiter plate wells in each of five 10-fold dilutions starting from a maximum concentration of 10^-4 M in water or DMSO. Cultures were then incubated for an additional 48 hours. Cells were then fixed in situ, followed by staining with sulforhodamine B (SRB), which binds to basic amino acids of cellular macromolecules. The solubilized stain was measured spectrophotometrically to determine relative cell growth or viability in treated and untreated cells. The monoimidazole analogs of Compounds 6, 7, 9 and 10 and the formamido analog corresponding to Compounds 7 and 10 are devoid of activity against the panel of cancer cell lines in Table III.

[2] = system: NCI-H226
Experimental: as §1, §2

[3] = system: HCC-2998
Experimental: as §1, §2

[4] = system: SF-268
Experimental: as §1, §2

[5] = system: HT29
Experimental: as §1, §2

[6] = system: DMS-114
Experimental: as §1, §2

[7] = system: EKVX
Experimental: as §1, §2

[8] = system: COLO-205
Experimental: as §1, §2

[9] = system: MALME-3M
Experimental: as §1, §2

[10] = system: SF-295
Experimental: as §1, §2

[11] = system: KM20L2
Experimental: as §1, §2

[12] = system: HCT-116
Experimental: as §1, §2

[13] = system: K-562
Experimental: as §1, §2

[14] = system: NCI-H322M
Experimental: as §1, §2

[15] = system: A549/ATCC
Experimental: as §1, §2

[16] = system: HOP-62
Experimental: as §1, §2

[17] = system: Molt-4
Experimental: as §1, §2

[18] = system: NCI-H23
Experimental: as §1, §2

[19] = system: KM12
Experimental: as §1, §2

[20] = system: SW-620
Experimental: as §1, §2

[21] = system: NCI-H522
Experimental: as §1, §2

[22] = system: HCT-15
Experimental: as §1, §2

[23] = system: DLD-1
Experimental: as §1, §2

[24] = system: SF-539
Experimental: as §1, §2

[25] = system: DMS-273; details: DMS-273; subsequent test date
Experimental: as §1, §2

[26] = system: NCI-H460
Experimental: as §1, §2

[27] = system: U251
Experimental: as §1, §2

For `CN(C)CCNC(=O)c1nc(NC(=O)c2nc(NC(=O)c3ccc(N(CCCl)CCCl)cc3)cn2C)cn1C` [Compound 6, N-(N',N'-dimethylaminoethyl)-1-methyl-4-{4-[4,4-bis(2-chloroethyl)aminobenzamido]-1-methylimidazole-2-carboxamido}imidazole-2-carboxamide], the pIC50 [1] was 4.60, the pIC50 ([2]; 48 h, Non-Small Cell Lung Cancer NCI-H226) was 4.21 and the pIC50 ([2]; NCI-H226, subsequent test date) was 4.21. The pIC50 ([3]; 48 h, Colon Cancer HCC-2998) was 4.47, the pIC50 ([3]; HCC-2998, subsequent test date) was 5.09 and the pIC50 ([4]; 48 h, CNS Cancer SF-268) was 4.30. For the same compound, the pIC50 ([4]; SF-268, subsequent test date) was 5.04, the pIC50 ([5]; 48 h, Colon Cancer HT29) was 5.23 and the pIC50 ([5]; HT29, subsequent test date) was 4.56. The pIC50 ([6]; 48 h, Small Cell Lung Cancer DMS-114) was 5.23, the pIC50 ([6]; DMS-114, subsequent test date) was 5.30 and the pIC50 ([7]; 48 h, Non-Small Cell Lung Cancer EKVX) was 4.32. For the same compound, the pIC50 ([7]; EKVX, subsequent test date) was 4.42, the pIC50 ([8]; 48 h, Colon Cancer COLO-205) was 5.23 and the pIC50 ([8]; COLO-205, subsequent test date) was 5.13. The pIC50 ([9]; 48 h, Melanoma MALME-3M) was 5.21, the pIC50 ([9]; MALME-3M, subsequent test date) was 4.19 and the pIC50 ([10]; 48 h, CNS Cancer SF-295) was 4.36. For the same compound, the pIC50 ([10]; SF-295, subsequent test date) was 4.48, the pIC50 ([11]; 48 h, Colon Cancer KM20L2) was 5.17 and the pIC50 ([11]; KM20L2, subsequent test date) was 4.70. For the same compound, the pIC50 ([12]; 48 h, Colon Cancer HCT-116) was 5.18, the pIC50 ([12]; HCT-116, subsequent test date) was 5.17 and the pIC50 ([13]; 48 h, Leukemia K-562) was 4.76. The pIC50 ([13]; K-562, subsequent test date) was 4.91, the pIC50 ([14]; 48 h, Non-Small Cell Lung Cancer NCI-H322M) was 4.39 and the pIC50 ([14]; NCI-H322M, subsequent test date) was 4.29. The pIC50 ([15]; 48 h, Non-Small Cell Lung Cancer A549/ATCC) was 4.23, the pIC50 ([15]; A549/ATCC, subsequent test date) was 4.42 and the pIC50 ([16]; 48 h, Non-Small Cell Lung Cancer HOP-62) was 4.28. For the same compound, the pIC50 ([16]; HOP-62, subsequent test date) was 4.30, the pIC50 ([17]; 48 h, Leukemia Molt-4) was 4.74 and the pIC50 ([17]; Molt-4, subsequent test date) was less than 4.00. For the same compound, the pIC50 ([18]; 48 h, Non-Small Cell Lung Cancer NCI-H23) was 4.33, the pIC50 ([18]; NCI-H23, subsequent test date) was 4.36 and the pIC50 ([19]; 48 h, Colon Cancer KM12) was 4.33. The pIC50 ([19]; KM12, subsequent test date) was 4.50, the pIC50 ([20]; 48 h, Colon Cancer SW-620) was 5.00 and the pIC50 ([20]; SW-620, subsequent test date) was 4.92. For the same compound, the pIC50 ([21]; 48 h, Non-Small Cell Lung Cancer NCI-H522) was 5.16, the pIC50 ([21]; NCI-H522, subsequent test date) was 5.24 and the pIC50 ([22]; 48 h, Colon Cancer HCT-15) was 4.39. For the same compound, the pIC50 ([22]; HCT-15, subsequent test date) was 4.36, the pIC50 ([23]; 48 h, Colon Cancer DLD-1) was 4.33 and the pIC50 ([23]; DLD-1, subsequent test date) was 4.26. For the same compound, the pIC50 ([24]; 48 h, CNS Cancer SF-539) was 5.16, the pIC50 ([24]; SF-539, subsequent test date) was 4.24 and the pIC50 [25] was 4.50. The pIC50 ([26]; 48 h, Non-Small Cell Lung Cancer NCI-H460) was 4.34, the pIC50 ([26]; NCI-H460, subsequent test date) was 4.45 and the pIC50 ([27]; 48 h, CNS Cancer U251) was 5.17. It also gave a pIC50 ([27]; U251, subsequent test date) of 5.24.
